The results in this text go back to ChEMBL document CHEMBL1149842, “Purine alkaloids from the South China Sea gorgonian Subergorgia suberosa” (J Nat Prod, 2008).

The subject of this assay is MDA-MB-231. In words: Cytotoxicity against human MDA-MB-231 cells by MTT assay. In kind it is functional, cell-based.

Molecules are shown by their SMILES. ≈ marks a conversion by molar mass, not a printed value.

One may read the IC50 as the concentration needed to halve the response being measured. Lower therefore signals higher potency. For `C[C@H]1CC[C@H]2[C@@H]3CC(=O)[C@H](Cn4c(O)nc5c(O)ncnc54)[C@@]13CC2(C)C`, the IC50 was found to be 8.87 µg/mL (≈ 23.9 µM).
